Assay [1] has as its target anti-T4 antibody Fab fragment. Briefly: Native MS initial ligand screening (approximate affinities, stoichiometry). The class given is binding, mouse. Conditions: 0.1 μM Fab; for approximate binding affinity: initial ligand screening. Here is the method: (§1) All mass spectrometric experiments were performed by using a 12-T Bruker solariX XR Fourier transform ion cyclotron resonance (FT-ICR) instrument (Bruker Daltonics, Bremen, Germany) equipped with an electrospray ionization (ESI) source (Apollo-II). Mass spectra were obtained in a positive ion mode, and the samples were directly infused to the ion source at a flow rate of 2 μL min^–1. Dry nitrogen was used as nebulizing (4.0 L min^–1) and drying (80 °C, 1.0 bar) gas. The ions were accumulated in the hexapole ion trap for 3.5 s and then transferred to the dynamically harmonized ICR cell (Paracell) for trapping, excitation, and detection. The time of flight was set to 3.5 ms. All other instrumental parameters were carefully adjusted to preserve noncovalent interactions in the gas phase. […] The mass spectra were externally calibrated by the ESI Tuning mix (part no. G2431A; Agilent Technologies, Santa Clara, CA). The mass spectra were acquired from m/z 1500 to 5000. The data acquisition was attained by ftmsControl 2.1 software and further processed and analyzed by DataAnalysis 4.2 SR1 software. All native MS experiments were performed in 20 mM aqueous ammonium acetate (pH 6.9) solution.
First, the approximate binding affinities of thyroid hormones and tetrahalogen bisphenols to anti-T4 Fab were determined via initial screening experiments (Figures S1–S7).

Assay [2] has as its target anti-T4 antibody Fab fragment. The assay can be described thus: Native MS (ESI FT-ICR) ligand competition with T2 as low-affinity reference ligand. The class given is binding, mouse. To be noted: for binding affinity (in words): native MS. Here is the method:
as §1, with “All native MS experiments were performed in 20 mM aqueous ammonium acetate (pH 6.9) solution.” left out
To determine the binding affinities for the other ligands, ligand competition experiments were performed.[25],[26] Briefly, T2 was used as the “low-affinity” reference ligand, whose accurate Kd value was determined earlier by the direct ligand titration. The two ligands, competing for the same binding site in anti-T4 Fab, were mixed at the appropriate concentrations (determined earlier by initial screening experiments) with the protein at a fixed concentration of 0.1 μM. Ten replicates were measured for each ligand pair from three different samples.
A mathematical model to calculate Kd values from the competition experiments was as follows: For L and Lref, competing for a single binding site in P, the two equilibrium reactions are [drawing 2] [drawing 3] where P is the receptor protein, L is the ligand, and Lref is the “low-affinity” reference ligand. Briefly, the intensity ratio (R) of the total abundance of the ligand-bound protein (PL) and free protein (P) was calculated for each spectrum. The affinity measurement for the “low-affinity” ligand (Lref) was performed by a direct titration method. The individual Kd values for L and Lref are derived as [drawing 4] 2 [drawing 5] 3 where the brackets represent equilibrium concentrations of L, Lref, P, PL, and PLref. The mass balance equations at equilibrium are [drawing 6] 4 [drawing 7] 5 [drawing 8] 6 where [P]total, [L]total, and [Lref]total are the total protein, ligand, and reference ligand concentrations, respectively.
At equilibrium, [P] is the same for both ligands, and thus, eqs. […] were simplified to [drawing 9] 7
The ESI-MS spectrum directly provides normalized intensities (“concentration coefficients”) i(P), i(PL), and i(PLref), such that their sum equals 1, which can then be used to calculate equilibrium concentrations by eqs 8, 9, and 10: [drawing 10] 8 [drawing 11] 9 [drawing 12] 10 These calculations are valid if one assumes that the ionization and ion transmission efficiencies for P, PL, and PLref are the same (they are if mL ≈ mLref ≪ mP, which is true in this case), and there is no complex dissociation upon ionization/desolvation stages (i.e., careful adjustments of instrumental parameters). The intensities should be calculated as integrated sums of different charge states to avoid any bias resulting from different CSDs between the free and bound proteins. The free ligand concentrations, [L] and [Lref], can be obtained from eqs 5 and 6. The equilibrium concentrations [L], [Lref], [PL], and [PLref] as well as the predetermined/known Kd(Lref) can be inserted into eq 7 to calculate Kd(L).

Assay [3] addresses anti-T4 antibody Fab fragment. The assay can be described thus: Native MS (ESI FT-ICR) direct ligand titration. Conditions: 0.005-2.0 μM T2, 0.1 μM Fab. The class given is binding, mouse. Here is the method: All mass spectrometric experiments were performed by using a 12-T Bruker solariX XR Fourier transform ion cyclotron resonance (FT-ICR) instrument (Bruker Daltonics, Bremen, Germany) equipped with an electrospray ionization (ESI) source (Apollo-II). Mass spectra were obtained in a positive ion mode, and the samples were directly infused to the ion source at a flow rate of 2 μL min^–1. Dry nitrogen was used as nebulizing (4.0 L min^–1) and drying (80 °C, 1.0 bar) gas. The ions were accumulated in the hexapole ion trap for 3.5 s and then transferred to the dynamically harmonized ICR cell (Paracell) for trapping, excitation, and detection. The time of flight was set to 3.5 ms. […] The data acquisition was attained by ftmsControl 2.1 software and further processed and analyzed by DataAnalysis 4.2 SR1 software. […]
A direct ligand titration[9],[22],[23] was used to determine the binding constant for the “low-affinity” reference ligand. […] The fractional saturation (Y) of the protein was calculated from the intensity ratio of the protein–ligand complex (PL) and free protein (P) for every single ligand (L) concentration (intensities averaged over different charge states), and the data were fitted into the specific, single-site binding model[24] […] Five replicate samples were prepared and measured for each T2 concentration. […]

Assay [4] concerns anti-T4 Fab. Details: method as in PMID 9095353, PMID 9460543. Conditions: SPR, cited from earlier work.
Assay [5] addresses THRα1. Details: method as in PMID 15466465. To be noted: cited from earlier work.
Where [6] appears, read: 0.1 μM Fab, 20 mM ammonium acetate pH 6.8, ligand and reference ligand (T2) concentrations per Table 1, mean ± SD, 10 replicates of three samples, read-out: Kd.
Where [7] appears, read: T4/T2 0.14/0.5 μM, T3/T2 0.14/0.5 μM, T0/T2 15/0.05 μM, 0.1 μM Fab, read-out: Kd (self-validation at second ligand concentrations).

“And” between values parts separate entries of the source, which are not always exact repeats. Equal values may be shown once.

Here are results for 6 compounds from PMC6854577, “Quantitation of Thyroid Hormone Binding to Anti-Thyroxine Antibody Fab Fragment by Native Mass Spectrometry” (ACS Omega, 2019).

Turning to `N[C@@H](Cc1ccc(Oc2ccc(O)cc2)cc1)C(=O)O` [T0, L-thyronine], in assay [1], the approximate binding affinity entry is given as “submicromolar to micromolar affinity range”. Also, the Kd in assay [2] (setting [6]) was 130 µM; in assay [2] (setting [7]), 174 µM; in assay [2] (competition with T2 as reference ligand, as given in the abstract, read-out: Kd), 130 µM. Also, in assay [2] (anti-T4 Fab, native MS Kd values compared), the “binding affinity relative to T3” value was “approximately five orders of magnitude lower”.

Consider `N[C@@H](Cc1ccc(Oc2ccc(O)c(I)c2)c(I)c1)C(=O)O` [T2, 3,3′-diiodo-L-thyronine], for which the Kd in assay [3] (20 mM ammonium acetate pH 6.8) is 0.26 µM; in assay [3] (20 mM ammonium acetate pH 6.8, one-site binding fit, five replicates), 0.263 µM and 0.26 µM. Further, in assay [4] (within the Kd range accessible by the technique), the binding entry was “did not show any binding”. Moreover, in assay [1], the approximate binding affinity result is “submicrometer range”.

As for `N[C@@H](Cc1cc(I)c(Oc2cc(I)c(O)c(I)c2)c(I)c1)C(=O)O` [T4, L-thyroxine], the results for the Kd in assay [5], in assay [2] (setting [6]) and in assay [2] (setting [7]) were 0.002 µM, 0.029 µM and 0.0239 µM, respectively. The “affinity relative to T3” value in assay [4] was “approximately 10 times”. Also, the approximate binding affinity result in assay [1] was “low nanomolar binding affinities”.

With `CC(C)(c1cc(Br)c(O)c(Br)c1)c1cc(Br)c(O)c(Br)c1` [TBB, tetrabromobisphenol-A], the approximate binding affinity entry in assay [1] is reported as “submicromolar to micromolar affinity range”. Besides, the Kd in assay [2] (setting [6]) came out at 0.087 µM. For the same compound, the “binding affinity (in words)” value in assay [2] (anti-T4 Fab) is recorded as “nanomolar binding affinities”.

Take `CC(C)(c1cc(Cl)c(O)c(Cl)c1)c1cc(Cl)c(O)c(Cl)c1` [TCB, tetrachlorobisphenol-A]: the ligand saturation result in assay [1] (ligand added until saturation) is reported as “saturative binding was not observed even at a molar ligand excess of 200”. In addition, in assay [1], the approximate binding affinity entry is “submicromolar to micromolar affinity range”. In assay [2] (setting [6]), the Kd stood at 7.8 µM.

Regarding `CC(C)(c1cc(I)c(O)c(I)c1)c1cc(I)c(O)c(I)c1` [TIB, tetraiodobisphenol-A], the approximate binding affinity entry in assay [1] was “submicromolar to micromolar affinity range”. Further, the Kd in assay [2] (setting [6]) is 0.011 µM. In addition, in assay [2] (anti-T4 Fab), the “binding affinity (in words)” value is listed as “nanomolar binding affinities”.
